≈ marks a conversion by molar mass, not a printed value.
Tests used:
RWPE-1 cells = assay: MTT assay (cytotoxicity) in RWPE-1; format: cell-based; settings: Homo sapiens, FIG. 4, read-out: GI50 against RWPE-1
From the text: (§1) FIG. 4. Bioassay of compound I-1, compound I-2, and compound I-3. SPA14-3-2 is pure compound I-2. SPA14-3-3 is pure compound I-3. SPA14-3-4 is pure compound I-1. MTT assays using compound I-1, compound I-2, and compound I-3 against DU145 and RWPE-1 cells lines.
(§2) Isolation, NMR, and X-ray crystallographic analyses. Leaves, stems, and few fruits of Physalis angulate L (Solanaceae) were collected in Rio Domingusa. Kuith/Barranquita, Amazonas Department, Northeastern Peru, and identified by the team led by Walter Lewis (collection voucher 18597, Ext. 1159). Dried and grounded material (46 g) was extracted with ethanol (1 L, 95%) for 7 days. The evaporated crude extract (6.26 g) was denoted SPA. An aliquot (1.5 g) of SPA was partitioned between dichloromethane (40 mL) and water (40 mL), affording two fractions: organic (SPA1, 500 mg) and aqueous (SPA2, 600 mg). All MTT assays were performed as described in Bates et al. “G-Rich Oligonucleotides for Cancer Treatment” Chapter 21 of Methods in Molecular Biology, Gene Therapy of Cancer, Wolfgang Walther and Ulrike S. Stein (eds.), Vol. 542, 2009, Humana Press. […] SPA14-3 (30 mg) was treated on an HPLC using a reverse phase C18 column eluted in gradient mode of methanol and water (from 80% methanol to 100% methanol) and detected at 254 nm, yielding SPA14-3-1 (0 mg), SPA14-3-2 (1.2 mg of pure compound I-2), SPA14-3-3 (4.1 mg of pure compound I-3), and SPA14-3-4 (18 mg of pure compound I-1).
General Experimental Procedure. Compound I-1 was isolated as described in Example Set 1, above. For samples of compound I-1 used in Example Set 2, HPLC and NMR indicated a purity of at least 95%. All experiments described in Example Set 2 were repeated at least two or three times. All MTT assays were performed according to Bates et al. “G-Rich Oligonucleotides for Cancer Treatment” Chapter 21 of Methods in Molecular Biology, Gene Therapy of Cancer, Wolfgang Walther and Ulrike S. Stein (eds.), Vol. 542, 2009, Humana Press.

DU145 cells = assay: MTT assay (cytotoxicity / cell proliferation) in DU145; format: cell-based, human; settings: Homo sapiens, DU-145; MTT assay, FIG. 4; read-out: GI50 against DU145
Description: as §1
FIG. 8. Cell proliferation assay. (A) DU145 or PC3 prostate cancer were plated at a density of 1,500 cells per well in 96-well plates and incubated 18 hours at 37° C. to allow adherence. They were untreated or treated by addition of different concentrations of compound I-1 (which were added directly to the medium) or vehicle (DMSO), and proliferation was measured using a 3-(4,5-dimethylthiazol-2-yl)-2,5-diphenyltetrazolium bromide MTT assay after 3 days of treatment. Points, mean of triplicate normalized samples to vehicle sample; bars, SE. (B) GI50 after 3 days of treatment. (C) Prostate cancer cells (DU145 or PC3) or a non-malignant epithelial cells (RWPE-1) were plated at a density of 1,000 cells per well in 96-well plates and incubated 18 hours at 37° C. to allow adherence. They were untreated or treated by addition of different concentrations of compound I-1 (added directly to the medium) or vehicle (DMSO), and proliferation was by MTT assay after 5 days of treatment. Points, mean of triplicate normalized samples to vehicle sample; bars, SE.
as §2
General Experimental Procedure. Compound I-1 was isolated as described in Example Set 1, above. For samples of compound I-1 used in Example Set 2, HPLC and NMR indicated a purity of at least 95%. All experiments described in Example Set 2 were repeated at least two or three times. […]

| Compound | GI50 (RWPE-1 cells) [µg/mL] | GI50 (DU145 cells) [µg/mL] |
| --- | --- | --- |
| CC12C[C@@H]([C@@]34CC[C@@]5(O3)C3C(O4)[C@H]4O[C@]46CC=CC(=O)[C@]6(C)[C@H]3CC[C@]5(C)O)C(C[C@@]1(C)O)OC2=O (stereo partly shown) [I-3] | 3.3 (≈ 6.59 µM) | 3 (≈ 5.99 µM) |
| CC12C[C@@H]([C@@]34CC[C@@]5(O3)C3C(O4)[C@H]4O[C@]46CC=CC(=O)[C@]6(C)[C@H]3CC[C@@]5(C)O)C(C[C@@]1(C)O)OC2=O (stereo partly shown) [I-2] | 3 (≈ 5.99 µM) | 3.4 (≈ 6.79 µM) |

Source: patent US9492428B2, “Compounds, compositions, pharmaceutical compositions, and methods of use” (University of Louisville Research Foundation, Inc., priority 2011, dated 2016)
